Values after ≈ are worked out from the molar mass of the structure shown. Like-named read-outs stand apart in the source and are kept apart here.
Tests used:
[1] = test system: sex hormone binding globulin, albumin; settings: cited from earlier work
[2] = biological target: sex hormone binding globulin, albumin (Homo sapiens, UniProt P02768); settings: cited from earlier work
[3] = biological target: T1, sex hormone binding globulin, albumin (Homo sapiens, UniProt P04278); settings: cited from earlier work
T1 sequence (P04278 30-402): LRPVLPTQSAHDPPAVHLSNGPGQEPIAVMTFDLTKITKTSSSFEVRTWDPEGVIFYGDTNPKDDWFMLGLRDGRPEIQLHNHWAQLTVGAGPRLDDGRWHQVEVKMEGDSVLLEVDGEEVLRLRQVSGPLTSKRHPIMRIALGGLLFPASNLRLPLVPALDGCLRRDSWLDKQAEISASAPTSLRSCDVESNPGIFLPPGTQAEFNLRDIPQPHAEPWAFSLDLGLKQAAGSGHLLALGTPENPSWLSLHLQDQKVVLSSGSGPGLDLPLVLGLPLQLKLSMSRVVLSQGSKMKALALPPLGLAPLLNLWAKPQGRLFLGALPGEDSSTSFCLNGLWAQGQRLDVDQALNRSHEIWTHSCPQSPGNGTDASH

[4] = Testosterone solubility by the increment method; format: physicochemical; settings: thermodynamic from solid
Description: A known amount of solvent (2 mL) is stirred at 37° C. in a closed Erlenmeyer.

sex hormone binding globulin, albumin (Homo sapiens, UniProt P02768), sequence (P02768 25-609): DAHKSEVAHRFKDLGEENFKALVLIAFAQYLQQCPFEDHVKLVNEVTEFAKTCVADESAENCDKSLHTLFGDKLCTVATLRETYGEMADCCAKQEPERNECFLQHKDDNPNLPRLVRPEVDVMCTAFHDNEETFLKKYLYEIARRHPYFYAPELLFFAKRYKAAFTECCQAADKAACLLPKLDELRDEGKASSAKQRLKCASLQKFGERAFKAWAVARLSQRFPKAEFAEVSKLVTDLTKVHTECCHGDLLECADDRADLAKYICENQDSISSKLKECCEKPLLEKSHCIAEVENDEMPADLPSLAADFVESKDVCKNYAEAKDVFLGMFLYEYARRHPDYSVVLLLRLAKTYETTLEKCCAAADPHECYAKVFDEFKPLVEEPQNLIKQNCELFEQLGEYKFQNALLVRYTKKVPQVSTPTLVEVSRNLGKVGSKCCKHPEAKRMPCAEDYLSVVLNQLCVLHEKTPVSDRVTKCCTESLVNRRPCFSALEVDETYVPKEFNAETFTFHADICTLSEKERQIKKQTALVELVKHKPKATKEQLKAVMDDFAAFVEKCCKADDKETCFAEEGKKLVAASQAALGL

For C[C@]12CC[C@H]3[C@@H](CCC4=CC(=O)CC[C@@]43C)[C@@H]1CC[C@@H]2O [Testosterone], the “bound to protein in the blood” value ([1]; men) is given as 98%, the “bound to protein in the blood” value ([1]; women) is given as 98% and the “share bound weakly to albumin” value ([2]; men) is given as 60%. The “share bound weakly to albumin” value ([2]; women) was 34%, the “share of the binding to sex hormone binding globulin” value ([3]; men) was “approximately 40%” and the “share of the binding to sex hormone binding globulin” value ([3]; women) was “approximately 66%”. It also gave a solubility ([4]; aqueous with cosolvent or surfactant or cyclodextrin, water/ethanol mixture, 95% ethanol (v/v) 63/37, 37° C.) of 30 mg/mL (≈ 104 mM), a solubility ([4]; aqueous with cosolvent or surfactant or cyclodextrin, water/ethanol mixture, 95% ethanol (v/v) 74/26, 37° C.) of 52 mg/mL (≈ 180 mM) and a solubility ([4]; aqueous with cosolvent or surfactant or cyclodextrin, water/ethanol mixture, 95% ethanol (v/v) 84/16, 37° C.) of 120 mg/mL (≈ 416 mM). For the same compound, the solubility ([4]; aqueous with cosolvent or surfactant or cyclodextrin, water/ethanol mixture, 95% ethanol (v/v) 86/14, 37° C.) was 160 mg/mL (≈ 555 mM), the solubility ([4]; oleic acid (OA) 100%, oil or lipid, solvent OA (100%), 37° C.) was 66 mg/mL (≈ 229 mM) and the solubility ([4]; organic solvent or mixture, solvent Transcutol (100%), 37° C.) was 140 mg/mL (≈ 485 mM). For the same compound, the solubility ([4]; organic solvent or mixture, water/ethanol mixture, 95% ethanol (v/v) 100/0, 37° C.) was 340 mg/mL (≈ 1180 mM), the solubility ([4]; propylene glycol (PG) 100%, organic solvent or mixture, solvent PG (100%), 37° C.) was 86 mg/mL (≈ 298 mM) and the solubility ([4]; propylene glycol dipelargonate (PGDP) 100%, oil or lipid, solvent PGDP (100%), 37° C.) was 18 mg/mL (≈ 62.4 mM). It also gave a solubility ([4]; propylene glycol/oleic acid (PG/OA) 50/50, organic solvent or mixture, solvent PG/OA (50/50), 37° C.) of 79 mg/mL (≈ 274 mM).

Source: patent US20080038220A1 (LABORATOIRES BESINS INTERNATIONAL, priority 2004, published 2008)
